The source of these data is patent US20220144838A1, “Compounds as Inhibitors of Macrophage Migration Inhibitory Factor” (NANJING IMMUNOPHAGE BIOTECH CO., LTD., priority 2019, published 2022).

A value given as a limit tells only on which side of the number the result lay.

In this test the target is T1, MIF (Homo sapiens, UniProt P14174).
T1 sequence (P14174 2-115 limits assumed): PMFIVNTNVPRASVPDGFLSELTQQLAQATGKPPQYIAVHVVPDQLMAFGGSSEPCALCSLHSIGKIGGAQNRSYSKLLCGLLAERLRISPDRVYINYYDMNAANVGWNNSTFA
Description: MIF tautomerase assay using pHPP as substrate. The test is classed as biochemical. Particulars: inhibition of the MIF enzyme in vitro; mean of multiple test results; read-out: Tautomerase Inhibition pIC50 (converted). The gist of the method:
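Cell-free keto-to-enol tautomerization of pHPP, enol product detected spectrophotometrically as borate complex. Final 3 nM MIF and 1.5 mM ketonic pHPP in DPBS/boric acid buffer with 0.025% BSA and 300 μM CHAPS, pH 6.0, room temperature; initial rates from absorbance slopes give mean pIC50.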

Consider `CC(C)(C(=O)O)n1cnc2c(-n3ncc4ccccc43)nc(N3CCN(c4ccc(O)cn4)CC3)nc21` [Example 141, 2-(2-(4-(5-hydroxypyridin-2-yl)piperazin-1-yl)-6-(1H-indazol-1-yl)-9H-purin-9-yl)-2-methylpropanoic acid], for which the IC50 is 10 to 97.7 nM. Under `CCC(C(=O)O)n1cnc2c(-n3ncc4ccccc43)nc(N3CCN(c4ccc(O)cn4)CC3)nc21` (stereo not shown) [Example 142, 2-(2-(4-(5-hydroxypyridin-2-yl)piperazin-1-yl)-6-(1H-indazol-1-yl)-9H-purin-9-yl)butanoic acid] stands 10 to 97.7 nM; under `CN(C)Cc1cccc2c1cnn2-c1nc(N2CCN(c3ccc(O)cc3)CC2)nc2c1ncn2CC(=O)O` [Example 143, 2-(6-(4-((dimethylamino)methyl)-1H-indazol-1-yl)-2-(4-(4-hydroxyphenyl)piperazin-1-yl)-9H-purin-9-yl)acetic acid], 100 to 977 nM; under `CN(C)Cc1cccc2c1cnn2-c1nc(N2CCN(c3ccc(O)cn3)CC2)nc2c1ncn2CC(=O)O` [Example 144, 2-(6-(4-((dimethylamino)methyl)-1H-indazol-1-yl)-2-(4-(5-hydroxypyridin-2-yl)piperazin-1-yl)-9H-purin-9-yl)acetic acid], 100 to 977 nM.

For `CC(C(=O)O)n1cnc2c(-n3ncc4ccccc43)nc(N3CCN(c4ccc(O)cn4)CC3)nc21` (stereo not shown) [Example 145, 2-(2-(4-(5-hydroxypyridin-2-yl)piperazin-1-yl)-6-(1H-indazol-1-yl)-9H-purin-9-yl)propanoic acid], the IC50 is 10 to 97.7 nM. Take `O=C(O)CCCn1cnc2c(-n3ncc4ccccc43)nc(N3CCN(c4ccc(O)cc4)CC3)nc21` [Example 146, 4-(2-(4-(4-hydroxyphenyl)piperazin-1-yl)-6-(1H-indazol-1-yl)-9H-purin-9-yl)butanoic acid]: the IC50 is 10 to 97.7 nM.

With `C=CCc1nn(-c2nc(N3CCN(c4ccc(O)cc4)CC3)nc3c2ncn3CC(=O)O)c2ccccc12` [Example 147, 2-(6-(3-allyl-1H-indazol-1-yl)-2-(4-(4-hydroxyphenyl)piperazin-1-yl)-9H-purin-9-yl)acetic acid], the IC50 was 1000 to 9770 nM. On to `O=C(O)CCCCn1cnc2c(-n3ncc4ccccc43)nc(N3CCN(c4ccc(O)cn4)CC3)nc21` [Example 149, 5-(2-(4-(5-hydroxypyridin-2-yl)piperazin-1-yl)-6-(1H-indazol-1-yl)-9H-purin-9-yl)pentanoic acid], for which the IC50 was 10 to 97.7 nM.

In the case of `O=C(O)CCCCn1cnc2c(-n3ncc4ccccc43)nc(N3CCN(c4ccc(O)cc4)CC3)nc21` [Example 150, 5-(2-(4-(4-hydroxyphenyl)piperazin-1-yl)-6-(1H-indazol-1-yl)-9H-purin-9-yl)pentanoic acid], the IC50 was 10 to 97.7 nM. In the case of `O=C(O)C(CC1CC1)n1cnc2c(-n3ncc4ccccc43)nc(N3CCN(c4ccc(O)cn4)CC3)nc21` (stereo not shown) [Example 151, 3-cyclopropyl-2-(2-(4-(5-hydroxypyridin-2-yl)piperazin-1-yl)-6-(1H-indazol-1-yl)-9H-purin-9-yl)propanoic acid], the IC50 was 10 to 97.7 nM. Under `OCCn1cnc2c(-n3nc(CO)c4ccccc43)nc(N3CCN(c4ccc(O)cc4)CC3)nc21` [Example 152, 4-(4-(9-(2-hydroxyethyl)-6-(3-(hydroxymethyl)-1H-indazol-1-yl)-9H-purin-2-yl)piperazin-1-yl)phenol] stands 10 to 97.7 nM; under `Cc1cc(N2CCN(c3nc(-n4ncc5ccccc54)c4ncn(CCO)c4n3)CC2)ccc1O` [Example 153, 4-(4-(9-(2-hydroxyethyl)-6-(1H-indazol-1-yl)-9H-purin-2-yl)piperazin-1-yl)-2-methylphenol], 1000 to 9770 nM; under `OCCn1cnc2c(-n3ncc4ccccc43)nc(N3CCN(c4ccc(CO)cn4)CC3)nc21` [Example 154, 2-(2-(4-(5-(hydroxymethyl)pyridin-2-yl)piperazin-1-yl)-6-(1H-indazol-1-yl)-9H-purin-9-yl)ethan-1-ol], over 10000 nM.
